SMILES strings stand for the structures. Calls of active or inactive are those of the source.

6 compounds from ChEMBL document CHEMBL1201862, “PubChem BioAssay data set” (2004) can be followed below.

For test [1], the target named is T1, Beta-2 adrenergic receptor (Homo sapiens, UniProt P07550). The test is described as follows: Dose response for HTS for Beta-2AR agonists via FAP method from Powderset1. It is filed as functional.
Test [2] deals with T1, Beta-2 adrenergic receptor. The test is described as follows: beta2AR agonists driving receptor internalization, dose response, cell-based, FAP fluorogen, flow cytometry, cherry pick 1 (AID 588763). Format: functional. A general note: In flow cytometry, cells or beads pass a laser one at a time.
Test [3] in a line: HepG2 cell cytotoxicity, dose response, cytotoxicity control, cherry-picks, set 5 (AID 1053118). Format: functional, cell-based.
The nature of test [4]: HEK293 cell cytotoxicity, dose response, cytotoxicity control, cherry-picks, set 5 (AID 1053117). It is filed as functional, cell-based.
Test [5] relates to A549. The test can be described thus: A549 cell toxicity, dose response, cytotoxicity control, plate reader, cherry-pick samples (AID 687028). It is filed as functional, cell-based. The settings on record: Homo sapiens.
Test [6] deals with HeLa. The test is described as follows: HeLa cell cytotoxicity, dose response, cytotoxicity control, ATP luminescence, cherry-pick samples (AID 687004). It is filed as functional, cell-based. The settings on record: Homo sapiens.
Test [7] is described as follows: HepG2 cell cytotoxicity, dose response, cytotoxicity control, ATP luminescence, cherry-pick, activator set 2 (AID 1053143). It is filed as functional, cell-based.
Test [8] addresses NS3 (Hepatitis C virus, UniProt A3EZJ3). The test can be described thus: HCV NS3 helicase inhibitor potency, dose response, biochemical, fluorescence polarization, ChemBridge library (AID 743264). For orientation: Polarisation of emitted light reports the rotation of a fluorescent probe.

T1 sequence (P07550 whole entry): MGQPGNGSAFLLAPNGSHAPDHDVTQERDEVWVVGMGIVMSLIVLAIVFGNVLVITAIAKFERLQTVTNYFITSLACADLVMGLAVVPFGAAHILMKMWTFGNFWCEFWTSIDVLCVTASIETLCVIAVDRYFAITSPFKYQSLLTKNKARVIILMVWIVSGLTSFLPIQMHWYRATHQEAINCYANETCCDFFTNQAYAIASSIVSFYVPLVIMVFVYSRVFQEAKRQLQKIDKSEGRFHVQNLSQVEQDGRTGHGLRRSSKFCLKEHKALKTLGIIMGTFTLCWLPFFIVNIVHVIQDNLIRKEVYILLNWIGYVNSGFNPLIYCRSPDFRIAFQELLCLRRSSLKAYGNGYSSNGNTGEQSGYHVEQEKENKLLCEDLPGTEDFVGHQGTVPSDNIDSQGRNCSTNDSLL
Sequence of NS3 (A3EZJ3 whole entry): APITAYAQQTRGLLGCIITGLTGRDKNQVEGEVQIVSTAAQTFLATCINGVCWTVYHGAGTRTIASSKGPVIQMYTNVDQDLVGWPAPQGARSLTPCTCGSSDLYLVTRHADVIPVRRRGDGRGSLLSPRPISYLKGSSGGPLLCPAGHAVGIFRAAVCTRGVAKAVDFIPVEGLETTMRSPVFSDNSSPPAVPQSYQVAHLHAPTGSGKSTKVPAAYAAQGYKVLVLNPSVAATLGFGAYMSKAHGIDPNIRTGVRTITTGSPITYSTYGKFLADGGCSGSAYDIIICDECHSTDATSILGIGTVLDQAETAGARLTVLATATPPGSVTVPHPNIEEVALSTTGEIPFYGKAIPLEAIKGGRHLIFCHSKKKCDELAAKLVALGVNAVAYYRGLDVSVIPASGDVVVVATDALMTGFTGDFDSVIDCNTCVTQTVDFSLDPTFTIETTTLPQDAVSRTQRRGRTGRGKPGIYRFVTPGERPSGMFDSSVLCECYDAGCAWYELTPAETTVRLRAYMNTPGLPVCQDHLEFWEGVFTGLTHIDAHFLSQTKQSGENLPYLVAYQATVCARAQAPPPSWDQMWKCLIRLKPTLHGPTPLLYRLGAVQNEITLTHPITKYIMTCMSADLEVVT

Take `CCc1ccc(CN2CCC(Oc3ccc(C(=O)N4CCCCC4)cc3)CC2)cc1`: the EC50 (commonly the midpoint of the concentration-response curve) was 1.83 µM (active) in test [1] and 1.75 µM (active) in test [2].

For the compound `COc1cccc(-c2ccc3c(c2)[C@H]2[C@H](CCN2S(=O)(=O)c2cccc(OC)c2)[C@@H](CO)N3)c1`, the AC50 – broadly, the concentration at which the activity in the assay is half-maximal – was > 52 µM (inactive) in test [3] and 29.7 µM (active) in test [4].

As to `Cc1ccc(S(=O)(=O)N(C)C[C@@H]2OCCCC[C@H](C)Oc3ccc(NS(=O)(=O)c4c(C)noc4C)cc3C(=O)N([C@H](C)CO)C[C@@H]2C)cc1`, the half-maximal activity concentration (AC50) in test [5] was 25.1 µM (active).

Regarding `CC(C)NC(=O)Nc1ccc2c(c1)CC(=O)N([C@@H](C)CO)C[C@@H](C)[C@@H](CN(C)Cc1ccc(Oc3ccccc3)cc1)O2`, the AC50 in test [6] was 38.8 µM (active).

Turning to `CCC(=O)Nc1sc(C(=O)Nc2ccccc2)c(C)c1C(=O)OC`, the concentration at half-maximal activity (AC50) in test [7] was 26 µM (active).

In the case of `O=C1NC(=O)N(c2ccccc2F)C(=O)/C1=C/c1ccc(-c2cc(C(=O)O)ccc2Cl)o1`, in test [8], the IC50 (in general, the point on the concentration scale where inhibition reaches its midpoint) is 35 µM (inactive).
